Laboratory results taken from ChEMBL document CHEMBL2311512, “Addition of thiols to o-quinone methide: new 2-hydroxy-3-phenylsulfanylmethyl[1,4]naphthoquinones and their activity against the human malaria parasite Plasmodium falciparum (3D7)” (Eur J Med Chem, 2013).

Tested on: Plasmodium falciparum
Assay: Antiplasmodial activity against Plasmodium falciparum 3D7 infected in RBC by flow cytometry analysis
Type: functional, organism-based

IC50 [µM]	SMILES
20	O=C1C(=O)c2ccccc2C(O)=C1CSc1ccc(Cl)cc1
17.6	Cc1ccccc1SC(C1=C(O)C(=O)c2ccccc2C1=O)c1ccccc1 (racemic)
31.8	CCCSCC1=C(O)C(=O)c2ccccc2C1=O
18.2	CSc1ccc(SC(C2=C(O)C(=O)c3ccccc3C2=O)c2ccccc2)cc1 (racemic)
14.5	O=C1C(O)=C(CSc2ccc3ccccc3c2)C(=O)c2ccccc21
10.7	Cc1cccc(SC(C2=C(O)C(=O)c3ccccc3C2=O)c2ccc([N+](=O)[O-])cc2)c1 (racemic)
5.4	Cc1cccc(SCC2=C(O)C(=O)c3ccccc3C2=O)c1
27	Cc1ccc(SC(C2=C(O)C(=O)c3ccccc3C2=O)c2ccc([N+](=O)[O-])cc2)cc1 (racemic)
19.9	O=C1C(O)=C(C(Sc2ccc3ccccc3c2)c2ccc([N+](=O)[O-])cc2)C(=O)c2ccccc21 (racemic)
9.3	COc1ccc(SCC2=C(O)C(=O)c3ccccc3C2=O)cc1
7.5	O=C1C(O)=C(C(Sc2ccc(Cl)cc2)c2ccc([N+](=O)[O-])cc2)C(=O)c2ccccc21 (racemic)
27.1	O=C1C(O)=C(CSc2ccccc2)C(=O)c2ccccc21
6.6	Cc1ccccc1SC(C1=C(O)C(=O)c2ccccc2C1=O)c1ccc([N+](=O)[O-])cc1 (racemic)
22.3	CSc1ccc(SCC2=C(O)C(=O)c3ccccc3C2=O)cc1
14.3	O=C1C(O)=C(C(Sc2ccc(F)cc2)c2ccc([N+](=O)[O-])cc2)C(=O)c2ccccc21 (racemic)
13.8	CCCSC(C1=C(O)C(=O)c2ccccc2C1=O)c1ccccc1 (racemic)
6.8	Cc1ccc(SCC2=C(O)C(=O)c3ccccc3C2=O)cc1
13.9	O=C1C(O)=C(C(Sc2ccc([N+](=O)[O-])cc2)c2ccccc2)C(=O)c2ccccc21 (racemic)
7.5	O=C1C(O)=C(C(Sc2ccc(O)cc2)c2ccc([N+](=O)[O-])cc2)C(=O)c2ccccc21 (racemic)
27.8	CCCSC(C1=C(O)C(=O)c2ccccc2C1=O)c1ccc([N+](=O)[O-])cc1 (racemic)
7	O=C1C(O)=C(CSc2ccc(F)cc2)C(=O)c2ccccc21
16.8	O=C1C(O)=C(C(Sc2ccccc2)c2ccc([N+](=O)[O-])cc2)C(=O)c2ccccc21 (racemic)
14.4	O=C1C(O)=C(CSc2ccc([N+](=O)[O-])cc2)C(=O)c2ccccc21
34.2	Cc1cccc(SC(C2=C(O)C(=O)c3ccccc3C2=O)c2ccccc2)c1 (racemic)
9.7	Cc1ccccc1SCC1=C(O)C(=O)c2ccccc2C1=O

SMILES	IC50 [µM]
O=C1C(O)=C([C@H]2CC[C@H](c3ccc(Cl)cc3)CC2)C(=O)c2ccccc21 [ATOVAQUONE]	0.003
